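How tested: cells in 96-well plates exposed to compound for 48 hours at five concentrations. TGI marks complete inhibition of growth.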
Experiments:
Assay in all cases: NCI-60 cell line screen, 48 h
[1] = tested on: OVCAR-3 ovarian
[2] = tested on: NCI-H23 lung
[3] = tested on: TK-10 renal
[4] = tested on: UO-31 renal
[5] = tested on: KM12 colon
[6] = tested on: RPMI-8226 leukemia
[7] = tested on: COLO 205 colon
[8] = tested on: SR leukemia
[9] = tested on: NCI/ADR-RES ovarian
[10] = tested on: MDA-N
[11] = tested on: LOX IMVI melanoma
[12] = tested on: HL-60(TB) leukemia
[13] = tested on: SNB-75 CNS
[14] = tested on: CAKI-1 renal
[15] = tested on: UACC-62 melanoma
[16] = tested on: CCRF-CEM leukemia
[17] = tested on: HOP-92 NSCLC
[18] = tested on: OVCAR-5 ovarian
[19] = tested on: NCI-H460 lung
[20] = tested on: MDA-MB-231 breast
[21] = tested on: RXF 393 renal
[22] = tested on: M14 melanoma
[23] = tested on: IGROV1 ovarian
[24] = tested on: HT29 colon
[25] = tested on: HCT-116 colon
[26] = tested on: SN12C renal
[27] = tested on: SK-OV-3 ovarian
[28] = tested on: A498 renal
[29] = tested on: OVCAR-4 ovarian
[30] = tested on: UACC-257 melanoma
[31] = tested on: EKVX NSCLC
[32] = tested on: HCC-2998 colon
[33] = tested on: MALME-3M melanoma
[34] = tested on: SF-268 CNS
[35] = tested on: T-47D breast
[36] = tested on: SF-295 CNS
[37] = tested on: SNB-19 CNS
[38] = tested on: BT-549 breast
[39] = tested on: 786-0 renal
[40] = tested on: HS 578T breast
[41] = tested on: MDA-MB-435
[42] = tested on: K-562 leukemia
[43] = tested on: HCT-15 colon
[44] = tested on: DU-145 prostate
[45] = tested on: NCI-H522 lung
[46] = tested on: PC-3 prostate
[47] = tested on: SK-MEL-2 melanoma
[48] = tested on: SK-MEL-5 melanoma
[49] = tested on: NCI-H226 lung
[50] = tested on: U251 CNS
[51] = tested on: ACHN renal
[52] = tested on: MOLT-4 leukemia
[53] = tested on: OVCAR-8 ovarian
[54] = tested on: A549 NSCLC
[55] = tested on: SW-620 colon
[56] = tested on: SK-MEL-28 melanoma
[57] = tested on: HOP-62 NSCLC
[58] = tested on: SF-539 CNS
[59] = tested on: MCF7 breast

O=C1c2cccnc2C(=O)c2c1nc1ccccc1c2-c1cncc(-c2c3c(nc4ccccc24)C(=O)c2cccnc2C3=O)c1
TGI [1]: 3.22 µM
TGI [2]: 0.944 µM
TGI [3]: 2.86 µM
TGI [4]: 0.946 µM
TGI [5]: 2 µM
TGI [6]: 0.808 µM
TGI [7]: 0.617 µM
TGI [8]: 0.0608 µM
TGI [9]: 2.1 µM
TGI [10]: 0.778 µM
TGI [11]: 0.449 µM
TGI [12]: 0.478 µM
TGI [13]: 1.6 µM
TGI [14]: 1.64 µM
TGI [15]: 1.09 µM
TGI [16]: 2.08 µM
TGI [17]: 5.93 µM
TGI [18]: 5.9 µM
TGI [19]: 0.516 µM
TGI [20]: 0.928 µM
TGI [21]: 5.48 µM
TGI [22]: 0.576 µM
TGI [23]: 0.286 µM
TGI [24]: 1.28 µM
TGI [25]: 0.352 µM
TGI [26]: 0.613 µM
TGI [27]: 2.1 µM
TGI [28]: 5.39 µM
TGI [29]: 1.91 µM
TGI [30]: 1.08 µM
TGI [31]: 1.73 µM
TGI [32]: 1.47 µM
TGI [33]: 1.52 µM
TGI [34]: 1.25 µM
TGI [35]: 2.91 µM
TGI [36]: 1.62 µM
TGI [37]: 1.57 µM
TGI [38]: 1.52 µM
TGI [39]: 0.228 µM
TGI [40]: 2.27 µM
TGI [41]: 0.9 µM
TGI [42]: > 24.8 µM
TGI [43]: 0.414 µM
TGI [44]: 0.565 µM
TGI [45]: 0.784 µM
TGI [46]: 11 µM
TGI [47]: 4.1 µM
TGI [48]: 0.52 µM
TGI [49]: 0.883 µM
TGI [50]: 1.22 µM
TGI [51]: 0.437 µM
TGI [52]: 0.788 µM
TGI [53]: 0.618 µM
TGI [54]: 2.6 µM
TGI [55]: 0.906 µM
TGI [56]: 1.57 µM

CCO/C(O)=C(/C(=N)N1CCCC1)C(=O)Nc1ccc(Cl)cc1
TGI [57]: > 100 µM
TGI [1]: > 100 µM
TGI [2]: > 100 µM
TGI [3]: > 100 µM
TGI [58]: > 100 µM
TGI [5]: > 100 µM
TGI [6]: > 100 µM
TGI [7]: > 100 µM
TGI [9]: > 100 µM
TGI [10]: > 100 µM
TGI [11]: > 100 µM
TGI [12]: > 100 µM
TGI [13]: > 100 µM
TGI [59]: > 100 µM
TGI [14]: > 100 µM
TGI [15]: > 100 µM
TGI [16]: > 100 µM
TGI [18]: > 100 µM
TGI [19]: > 100 µM
TGI [20]: > 100 µM
TGI [21]: > 100 µM
TGI [22]: > 100 µM
TGI [23]: > 100 µM
TGI [24]: > 100 µM
TGI [25]: > 100 µM
TGI [26]: > 100 µM
TGI [27]: > 100 µM
TGI [28]: > 100 µM
TGI [29]: > 100 µM
TGI [30]: > 100 µM
TGI [31]: > 100 µM
TGI [32]: > 100 µM
TGI [33]: > 100 µM
TGI [34]: > 100 µM
TGI [35]: > 100 µM
TGI [36]: > 100 µM
TGI [37]: > 100 µM
TGI [38]: > 100 µM
TGI [39]: > 100 µM
TGI [40]: > 100 µM
TGI [41]: > 100 µM
TGI [42]: > 100 µM
TGI [43]: > 100 µM
TGI [44]: > 100 µM
TGI [45]: > 100 µM
TGI [46]: > 100 µM
TGI [47]: > 100 µM
TGI [49]: > 100 µM
TGI [50]: > 100 µM
TGI [51]: > 100 µM
TGI [52]: > 100 µM
TGI [53]: > 100 µM
TGI [54]: > 100 µM
TGI [55]: > 100 µM
TGI [56]: > 100 µM

Cc1ncc([N+](=O)[O-])n1CCNC(=O)CCn1ccnc1[N+](=O)[O-]
TGI [57]: > 100 µM
TGI [1]: > 100 µM
TGI [2]: > 100 µM
TGI [3]: > 100 µM
TGI [58]: > 100 µM
TGI [4]: > 100 µM
TGI [5]: > 100 µM
TGI [6]: > 100 µM
TGI [7]: > 100 µM
TGI [8]: > 100 µM
TGI [9]: > 100 µM
TGI [10]: > 100 µM
TGI [11]: > 100 µM
TGI [12]: > 100 µM
TGI [13]: > 100 µM
TGI [59]: > 100 µM
TGI [14]: > 100 µM
TGI [15]: > 100 µM
TGI [16]: > 100 µM
TGI [18]: > 100 µM
TGI [19]: > 100 µM
TGI [22]: > 100 µM
TGI [23]: > 100 µM
TGI [24]: > 100 µM
TGI [25]: > 100 µM
TGI [26]: > 100 µM
TGI [27]: > 100 µM
TGI [29]: > 100 µM
TGI [30]: > 100 µM
TGI [31]: > 100 µM
TGI [32]: > 100 µM
TGI [33]: > 100 µM
TGI [34]: > 100 µM
TGI [35]: > 100 µM
TGI [36]: > 100 µM
TGI [37]: > 100 µM
TGI [38]: > 100 µM
TGI [39]: > 100 µM
TGI [40]: > 100 µM
TGI [41]: > 100 µM
TGI [42]: > 100 µM
TGI [43]: > 100 µM
TGI [44]: > 100 µM
TGI [45]: > 100 µM
TGI [46]: > 100 µM
TGI [47]: > 100 µM
TGI [48]: > 100 µM
TGI [49]: > 100 µM
TGI [50]: > 100 µM
TGI [51]: > 100 µM
TGI [52]: > 100 µM
TGI [53]: > 100 µM
TGI [54]: > 100 µM
TGI [55]: > 100 µM
TGI [56]: > 100 µM

From PubChem BioAssay (NCI)
